The values below come from patent US10385038B2, “Pyridine substituted 2-aminopyridine protein kinase inhibitor crystal” (Chia Tai Tianqing Pharmaceutical Group Co., Ltd., priority 2015, dated 2019).

The Cmax is the highest concentration seen after dosing. For orientation: AUC(0-t) means the area under the concentration-time curve up to a stated or last time point. A lower AUC(0-t) goes with less exposure. What is called AUC(0-inf) is total exposure, with the tail of the curve extrapolated. In general, Tmax refers to the time from dosing to the highest level.

The nature of series [1]: Hygroscopicity test (Chinese Pharmacopoeia 2005, Appendix XIX J). In kind it is physicochemical.
The nature of series [2]: Pharmacokinetic test, intragastric administration to Beagle dogs, plasma LC-MS/MS. Format: in vivo. The following applies: for Cmax / AUC(0-t) / AUC(0-inf) / Tmax / bioavailability: both sexes, dog, plasma; for Cmax / AUC(0-t) / AUC(0-inf) / Tmax: po; for Cmax / AUC(0-t) / AUC(0-inf) / Tmax / t1/2z: suspension in 0.5% CMC-Na, citrate crystal 5.52 mg/kg, compound of Formula I 4 mg/kg (equimolar as base); for AUC(0-t): 0-36 h, trapezoidal; for AUC(0-inf): extrapolated Ct/λ; for Tmax: mean ± spread; for bioavailability: beagle, oral, crystal of citrate salt versus compound of Formula I. From the text:
In this study, LC-MS/MS was used to determine the plasma concentrations of drugs after the compound of Formula I and crystals of citrate salt thereof were intragastrically administered to Beagle dogs, and the effects of the crystals of citrate salt of the compound of Forumla I on the absorption behavior were observed.
The instrumentation system included the LC-10ADvp (Shimadzu, Japan) LC system and the TSQ Quantum Access triple quadrupole tandem mass spectrometer equipped with an electrospray ionization (ESI) source and Xcalibur 2.0.7 data processing system (Thermo Scientific, USA); the operating software was DAS2.1.1; other instruments were One hundred thousandth electronic balance (Mettler Toledo); Centrifugal rotary concentrator (LABCONCO, USA); High-speed refrigerated centrifuge (Model 5430-R, Eppendorf); Refrigerator (Model BCD-281E, Electrolux); Low temperature refrigerator (Model FORMA 700 SERIES, Thermo […]), etc.
Column: Thermo C18 LC column (size: 150 L×2.1 mm, 5 μm); column temperature: 40° C.; Mobile phase A: aqueous phase (containing 5 mM ammonium acetate and 0.1% formic acid); mobile phase B: methanol; gradient elution: 0.01 min, 20%; 0.5 min, 20%; 1.5 min, 80%; 4.5 min, 80%, 5 min, 20%, 6 min, stop (phase B). The flow rate was 0.3 mL/min. Benazeprilat was used as the internal standard for measurement.
The measurement was carried out by LC-MS/MS. The ion source was an ESI source and detection was performed in the positive ionization mode; the spray voltage was 3.8 kV; the heated capillary temperature was 350° C.; the pressure of the sheath gas (N2) was 35 Arb; the pressure of the auxiliary gas (N2) was 15 Arb; and voltages for collision induced dissociation (CID) were 25 eV and 25 eV (internal standard), respectively. The scanning mode was selective reaction monitoring (SRM), and the ion reactions for quantitative analysis were m/z 506.3-315.2 (the compound of Formula I) and m/z 397-351 (internal standard), respectively.
Six adult healthy beagle dogs, half male and half female, each weighing 9-11 kg, were randomly divided into two groups, and cross-administrated with the compound of Formula I and a crystal of citrate salt thereof.
After fasted for 12 h, the dogs were intragastrically administered with the crystal of citrate salt of the compound of Formula I and with the compound of Formula I (both were formulated with 0.5% CMC-Na as a suspension) at 5.52 mg/kg and 4 mg/kg (equimolar amounts based on the base form), respectively. A blank blood sample was taken before administration; and venous blood samples, about 1.0 ml each, were taken 0.5, 1, 2, 3, 4, 6, 8, 12, 14, 24, 36 hours after administration, placed in test tubes containing heparin, and centrifuged. The plasma fractions were isolated and stored at −80° C. After the washout period (7 days), the two groups of animals were each cross-administrated with the corresponding second drug, and the concentration of compound of Formula I in plasma samples was measured. The plasma concentration-time data for each test animal were input into a computer and the relevant pharmacokinetic parameters were calculated using the pharmacokinetic professional software DAS2.1.1, wherein Cmax and Tmax were measured values. AUC(0-t) and AUC(0-∞) are the area under the plasma concentration-time curve for the period of measurement and the total area under the plasma concentration-time curve, respectively. The AUC(0-t) was estimated by the trapezoidal method from the measured plasma concentrations, and the AUC(0-∞) was calculated from the AUC(0-t) plus the remaining area in the range t→∞, which can be calculated by the following equation: AUC(t-∞)=Ct/λ
In the above equation, Ct is the last plasma concentration measured, and λ is the elimination rate constant in the terminal portion of the plasma concentration.

A short description of series [3]: Stability test (Chinese Pharmacopoeia 2010, Appendix XIX C), total impurities by HPLC. Format: physicochemical. Particulars: for Total impurities: citrate salt. How it is done: Stability was examined for 10 days under the conditions of 40° C., 60° C., 75% relative humidity (25° C.), 92.5% relative humidity (25° C.), or light illumination (5000 lx±500 lx), respectively. Samples were taken on day 0 and day 10, and the total impurities thereof were assayed by HPLC.
Column: Waters XBridge C18 (5 μm, 4.6×150 mm)
Mobile phase A: 0.01 M aqueous ammonium formate, to which 0.1% formic acid was added, and triethylamine was also added to adjust the pH to 7.4
Mobile phase B: acetonitrile
Linear gradient elution, with the following procedure: […]
Detection wavelength: diode array detector (280 nm)
Column temperature: 40° C.
Solvent: acetonitrile-water (1:1)
Preparation of the test solution: the solution was taken and accurately weighed, dissolved in a solvent and diluted to a solution at 1 mg per 1 mL, as the test solution.

[4] abbreviates: 10 days at 40° C., 60° C., 75% RH, 92.5% RH or light.

Like-named read-outs stand apart in the source and are kept apart here.

Take `COc1cc(N2CCNC[C@@H]2C)ncc1-c1cnc(N)c(O[C@H](C)c2c(Cl)ccc(F)c2Cl)c1.O=C(O)CC(O)(CC(=O)O)C(=O)O` [Example 12, 5-((R)-1-(2,6-dichloro-3-fluorophenyl)ethoxy)-4′-methoxy-6′-((S)-2-methylpiperazin-1-yl)-3,3′-bipyridin-6-amine citrate salt]: the “Hygroscopic weight gain compared to the compound of Formula I and the other salts thereof (in words)” value in series [1] was “obviously lower”.

On to `COc1cc(N2CCNC[C@@H]2C)ncc1-c1cnc(N)c(O[C@H](C)c2c(Cl)ccc(F)c2Cl)c1` [Example 1, 5-((R)-1-(2,6-dichloro-3-fluorophenyl)ethoxy)-4′-methoxy-6′-((S)-2-methylpiperazin-1-yl)-3,3′-bipyridin-6-amine], for which, in series [2], the peak level (Cmax) was 50 ± 20.8 ng/mL, the exposure AUC(0-t) amounted to 502 ± 176 ng·h/mL, the AUC(0-inf) was 517 ± 181 ng·h/mL and the Tmax came to 3.17 ± 1.6 h. The same compound registered a t1/2z in series [2] of 6.71 ± 2.55 h.

On to `COc1cc(N2CCNC[C@@H]2C)ncc1-c1cnc(N)c(O[C@H](C)c2c(Cl)ccc(F)c2Cl)c1.O=C(O)CC(O)(CC(=O)O)C(=O)O` [Example 2, 5-((R)-1-(2,6-dichloro-3-fluorophenyl)ethoxy)-4′-methoxy-6′-((S)-2-methylpiperazin-1-yl)-3,3′-bipyridin-6-amine citrate salt], for which, in series [1], the “Hygroscopic weight gain compared to the compound of Formula I and the other salts thereof (in words)” value is “obviously lower”. Moreover, in series [2], the “Degree and rate of absorption compared to the compound of Formula I (in words)” value was “better degree and rate of absorption”; the Cmax was found to be 63 ± 29.2 ng/mL; the area under the curve AUC(0-t) is 570 ± 343 ng·h/mL; the AUC(0-inf) is 586 ± 353 ng·h/mL. Further, in series [2], the Tmax is 2.33 ± 1.03 h and the t1/2z is 5.94 ± 1.59 h. In series [2] (from AUC(0-t), read-out: Relative bioavailability F1), the bioavailability was determined as 114 ± 68.3%. Also, the bioavailability in series [2] (from AUC(0-∞), read-out: Relative bioavailability F2) came to 113 ± 68.3%. Further, the Total impurities in series [3] (40° C., 10 days, listed as crystal form A of citrate salt of the compound of Formula I) stood at 0.77%. Also, the Total impurities in series [3] (60° C., 10 days, listed as crystal form A of citrate salt of the compound of Formula I) was determined as 0.89%. In series [3] (setting [4]), the “Stability (in words)” value is “good stability” and the “Stability compared between crystal forms (in words)” value is given as “better than that of crystal form B”. Also, the Total impurities in series [3] (Initial state, 0 day, listed as crystal form A of citrate salt of the compound of Formula I) came to 0.76%. Also, the Total impurities in series [3] (Light illumination (5000 lx±500 lx), 10 days, listed as crystal form A of citrate salt of the compound of Formula I) came to 0.78%. For the same compound, the Total impurities in series [3] (Relative humidity 75%, 25° C., 10 days, listed as crystal form A of citrate salt of the compound of Formula I) turned out to be 0.79%. Further, the Total impurities in series [3] (Relative humidity 92.5%, 25° C., 10 days, listed as crystal form A of citrate salt of the compound of Formula I) was found to be 0.77%.

`COc1cc(N2CCNC[C@@H]2C)ncc1-c1cnc(N)c(O[C@H](C)c2c(Cl)ccc(F)c2Cl)c1.O=C(O)CC(O)(CC(=O)O)C(=O)O` [Example 8, 5-((R)-1-(2,6-dichloro-3-fluorophenyl)ethoxy)-4′-methoxy-6′-((S)-2-methylpiperazin-1-yl)-3,3′-bipyridin-6-amine citrate salt]: the “Hygroscopic weight gain compared to the compound of Formula I and the other salts thereof (in words)” value in series [1] is “obviously lower”. Besides, the Total impurities was determined as 0.96% in series [3] (40° C., 10 days, listed as crystal form B of citrate salt of the compound of Formula I); 1.19% in series [3] (60° C., 10 days, listed as crystal form B of citrate salt of the compound of Formula I); 0.89% in series [3] (Initial state, 0 day, listed as crystal form B of citrate salt of the compound of Formula I); 0.99% in series [3] (Light illumination (5000 lx±500 lx), 10 days, listed as crystal form B of citrate salt of the compound of Formula I); 0.94% in series [3] (Relative humidity 75%, 25° C., 10 days, listed as crystal form B of citrate salt of the compound of Formula I); 0.95% in series [3] (Relative humidity 92.5%, 25° C., 10 days, listed as crystal form B of citrate salt of the compound of Formula I).
